Experimental data reported in patent publication US10913750B2, “Tubulin-binding compounds, compositions and uses related thereto” (The Regents of the University of California, priority 2015, dated 2021).

Experiments:
[1] = system: breast adenocarcinoma (MCF7); assay: Cell viability, MCF7; type: cell-based; settings: Homo sapiens; MCF7 cells
Experimental: (§1) To determine if MI-181 had broad anti-cancer activity, we treated a diverse panel of cancer cell lines including cervical adenocarcinoma (HeLa), breast adenocarcinoma (MCF7), melanoma (M233), osteosarcoma (U205), acute lymphoblastic leukemia (CCRF-CEM), non-small cell lung carcinoma (NCI-H460), and breast adenocarcinoma (MCF7) with MI-181 and determined its cell viability IC50 (FIGS. 13A and 13B). […] Therefore, the efficacy of MI-181 was analyzed in a panel of melanoma cell lines with defined genetic backgrounds including BRAF^V600E and NRAS^Q61L mutations and varied sensitivities to Vemurafenib (BRAF inhibitor) and Trametinib (MEK inhibitor), which are currently used to treat BRAF^V600E melanomas^43,44 (FIG. 10c). […] As a general trend BRAF^V600E cell lines were slightly more sensitive than NRAS^Q61L cell lines and MI-181 was effective in Vemurafenib and Trametinib resistant cell lines (FIG. 10c and Table 3). Finally, we tested the ability of MI-181 to inhibit melanoma colony formation using the M233 and M308 cell lines (both resistant to Vemurafenib). Indeed, MI-181 was a potent inhibitor of colony formation (percentage colony formation for 10 nM MI-181=0.2±0.1 and 0.8±0.7; for 10 nM colchicine=0.1±0.06 and 1.5±0.5; and for 10 nM Vemurafenib=94±7 and 102±5) (FIG. 10d). Thus, MI-181 is a potent inhibitor of melanoma cell lines. […]

M308 = assay: CellTiter-Glo cell viability, M308; type: cell-based
Experimental: as §1

M230 = assay: CellTiter-Glo cell viability, M230; type: cell-based
Experimental: as §1

M238 = assay: CellTiter-Glo cell viability, M238; type: cell-based
Experimental: as §1

[2] = system: diverse panel of cancer cell lines; assay: Cell viability in a diverse panel of cancer cell lines; type: cell-based; settings: HeLa, M233, U205, CCRF-CEM, NCI-H460; MCF7 excepted; read-out: cell viability IC50 across most cancer cell lines
Experimental: as §1

tubulin = biological target: T1, tubulin (Sus scrofa, UniProt P02554); assay: In vitro tubulin polymerization assay (HTS-tubulin polymerization kit, Cytoskeleton); type: biochemical; settings: 3 μM compound, fluorescence, 70 minutes at 37° C.
T1 construct: purchased Cytoskeleton Inc. BK011P
T1 sequence (P02554 whole entry): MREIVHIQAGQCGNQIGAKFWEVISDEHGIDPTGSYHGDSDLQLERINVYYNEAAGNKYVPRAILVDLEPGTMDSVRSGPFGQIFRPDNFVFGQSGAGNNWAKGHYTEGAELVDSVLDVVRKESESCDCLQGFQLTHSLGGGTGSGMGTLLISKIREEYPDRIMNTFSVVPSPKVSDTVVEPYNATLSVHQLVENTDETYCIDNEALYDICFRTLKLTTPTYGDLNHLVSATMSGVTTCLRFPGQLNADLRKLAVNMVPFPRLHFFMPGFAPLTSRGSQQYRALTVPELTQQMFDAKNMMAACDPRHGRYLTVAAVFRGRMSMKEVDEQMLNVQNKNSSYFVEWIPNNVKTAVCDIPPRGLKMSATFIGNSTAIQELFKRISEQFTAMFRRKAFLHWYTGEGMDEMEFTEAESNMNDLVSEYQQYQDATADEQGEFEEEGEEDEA
T1 sequence (P02550 whole entry partner): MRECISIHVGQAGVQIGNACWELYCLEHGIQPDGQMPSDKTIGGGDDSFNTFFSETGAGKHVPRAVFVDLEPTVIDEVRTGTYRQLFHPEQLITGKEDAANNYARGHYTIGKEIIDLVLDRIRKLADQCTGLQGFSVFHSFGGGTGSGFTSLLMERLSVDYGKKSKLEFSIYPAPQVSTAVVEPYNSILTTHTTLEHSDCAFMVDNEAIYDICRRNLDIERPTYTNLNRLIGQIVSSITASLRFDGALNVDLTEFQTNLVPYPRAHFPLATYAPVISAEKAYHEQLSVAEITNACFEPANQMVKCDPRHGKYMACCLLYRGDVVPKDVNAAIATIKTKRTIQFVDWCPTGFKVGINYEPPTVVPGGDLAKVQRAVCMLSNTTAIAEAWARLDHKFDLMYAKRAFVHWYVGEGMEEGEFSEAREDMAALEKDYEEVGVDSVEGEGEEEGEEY
Experimental: 1.5 ul of 10× strength compound, 20 μl of tubulin solution and Triton X-100 at a final concentration of 0.01% were added to each well in a 384 well plate. The reactions were assembled on ice to prevent tubulin pre-polymerization. For kinetic measurements, microtubule polymerization was monitored by reading the fluorescence at 420 nm (due to the incorporation of a fluorescent reporter into microtubules as polymerization occurs) every ten seconds using a Tecan M1000 microplate reader (FIG. 6B). […] Fluorescence increased as polymerization occurred, due to the incorporation of 4′,6-diamidino-2-phenylindole. Fluorescence was monitored every minute for 70 minutes at 37° C.
Tubulin polymerization reactions were carried out according to the manufacturer (Cytoskeleton, BK011P) in the presence of 3 μM colchicine, MI-181, taxol or DMSO. Polymerization was monitored with a Tecan M1000 micro-plate reader at 420 nm for 70 minutes at 37° C. The results are depicted in FIG. 11.

M409 = assay: CellTiter-Glo cell viability, M409; type: cell-based
Experimental: as §1

M397 = assay: CellTiter-Glo cell viability, M397; type: cell-based
Experimental: as §1

M318 = assay: CellTiter-Glo cell viability, M318; type: cell-based
Experimental: as §1

M296 = assay: CellTiter-Glo cell viability, M296; type: cell-based
Experimental: as §1

M368 = assay: CellTiter-Glo cell viability, M368; type: cell-based
Experimental: as §1

M243 = assay: CellTiter-Glo cell viability, M243; type: cell-based
Experimental: as §1

M207 = assay: CellTiter-Glo cell viability, M207; type: cell-based
Experimental: as §1

Cc1cc2nc(/C=C/c3cccnc3)sc2cc1C [MI-181]
IC50 [1]: 11000 nM
IC50 (M308): 28.3 nM
IC50 (M230): 42 nM
IC50 (M238): 30.5 nM
IC50 [2]: 30 to 360 nM
inhibition of microtubule (tubulin) polymerization in vitro (tubulin): inhibits tubulin polymerization
IC50 (M409): 41.9 nM
IC50 (M397): 18.1 nM
IC50 (M318): 54.9 nM
IC50 (M296): 36.7 nM
IC50 (M368): 42.1 nM
IC50 (M243): 26 nM
IC50 (M207): 41.7 nM
